Patent publication US4880938A, “Amino acid analogs” (priority 1986, dated 1989)
Where a SMILES comes first, the peptide text is derived from it. [ ]: non-standard residue; d: D form. The star is where a group is joined. sY = N[C@@H](Cc1ccc(OS(=O)(=O)O)cc1)C(=O)O; Cbz = O=C(OCc1ccccc1)*; Boc = CC(C)(C)OC(=O)*

Experiments:
gastrin = details: background, in vitro; cited from earlier work
CCK receptor = details: background, structure-function studies; cited from earlier work
[1] = molecular target: T1, CCK receptor (brain, cerebral cortex) (Cavia porcellus, UniProt H0VZC5); assay: 125I-CCK-33 receptor binding (brain) method; design: species or system guinea pig (male Hartley); details: 125I-CCK-33, guinea pig cerebral cortex, 25° C., 2 hours
T1 construct: The cerebral cortex was dissected and used as a receptor source; from tissue; host or cells: cerebral cortex of male Hartley guinea pigs, membrane homogenate
T1 sequence (H0VZC5 1-426): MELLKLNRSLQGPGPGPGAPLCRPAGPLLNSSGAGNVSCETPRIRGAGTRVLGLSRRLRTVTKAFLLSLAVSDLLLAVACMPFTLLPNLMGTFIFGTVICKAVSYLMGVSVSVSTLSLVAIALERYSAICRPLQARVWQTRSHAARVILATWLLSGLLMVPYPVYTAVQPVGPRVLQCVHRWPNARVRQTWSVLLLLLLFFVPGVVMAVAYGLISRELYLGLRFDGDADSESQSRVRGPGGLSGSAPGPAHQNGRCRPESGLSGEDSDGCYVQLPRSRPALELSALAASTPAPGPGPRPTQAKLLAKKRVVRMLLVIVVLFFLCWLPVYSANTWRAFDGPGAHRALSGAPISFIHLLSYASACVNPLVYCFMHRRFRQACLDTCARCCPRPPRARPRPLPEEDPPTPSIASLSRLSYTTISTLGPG
Source text: (§1) Screening of the novel compounds according to the present invention to determine biological activity and obtain an IC50 value for them, in order to identify significant CCK-antagonism, may be accomplished using an ^125 I-CCK receptor binding assay and in vitro isolated tissue preparations. To identify significant gastrin antagonism, ^125 I-gastrin and ^3 H-pentagastrin binding assays are used. These tests involve the following:
CCK receptor binding (brain) method
CCK-33 was radiolabeled and the binding was performed according to the description for the pancreas method, with modifications according to Saito et al., J. Neurochem., 37, 483-490, 1981.
Male Hartley guinea pigs (300-500 g) were sacrificed by decapitation, and the brains were removed and placed in ice-cold 50 mM Tris HCl plus 7.58 g/l Trizma-7.4 [pH 7.4 at 25° C.]. The cerebral cortex was dissected and used as a receptor source and each gram of fresh guinea pig brain tissue was homogenized in 10 ml of Tris/Trizma buffer with a Brinkmann polytron PT-10. The homogenates were centrifuged at 42,000 g for 15 minutes, then the resulting pellets were resuspended in 200 volumes of binding assay buffer (10 mM N-2-hydroxy-ethyl-piperazine-N'-2-ethane-sulfonic acid (HEPES), pH 7.7 at 25° C., 5 mM MgCl2, 1 mM ethyl glycol-bis-(β-amino-ethyl-ether-N,N'-tetraacetic acid (EGTA), 0.4% BSA (bovine serum albumin) and 0.25 mg/ml bacitracin, pH 6.5).
The remainder of the binding assay method was as described for the pancreas method, except that the reaction mixtures were incubated at 25° C. for 2 hours before centrifugation.

CCK receptor (pancreas) = molecular target: T2, CCK receptor (pancreas) (Rattus norvegicus, UniProt P30551); assay: 125I-CCK-33 receptor binding (pancreas) method; design: species or system rat (male Sprague-Dawley); details: protease inhibitors added to binding assay buffer
T2 construct: The whole pancreas of a male Sprague-Dawley rat (200-350 g); from tissue; host or cells: whole pancreas of male Sprague-Dawley rat, membrane homogenate
T2 sequence (P30551 1-444): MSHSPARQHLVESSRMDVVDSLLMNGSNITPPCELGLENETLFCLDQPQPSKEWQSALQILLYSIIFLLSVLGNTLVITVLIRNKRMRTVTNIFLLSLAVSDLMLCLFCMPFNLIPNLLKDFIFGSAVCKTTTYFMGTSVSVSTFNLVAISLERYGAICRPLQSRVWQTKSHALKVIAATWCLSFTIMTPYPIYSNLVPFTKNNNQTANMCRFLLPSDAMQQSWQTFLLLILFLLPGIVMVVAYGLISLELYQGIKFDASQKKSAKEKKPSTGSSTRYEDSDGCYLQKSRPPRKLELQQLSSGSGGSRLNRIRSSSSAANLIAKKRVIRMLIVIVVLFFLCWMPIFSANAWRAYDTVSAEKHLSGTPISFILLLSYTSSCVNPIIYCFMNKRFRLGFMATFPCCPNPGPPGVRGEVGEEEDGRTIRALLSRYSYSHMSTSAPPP
Source text: as §1, with “To identify significant gastrin antagonism, ^125 I-gastrin and ^3 H-pentagastrin binding assays are used.” left out
CCK receptor binding (pancreas) method
CCK-33 was radiolabeled with ^125 I-Bolton Hunter reagent (2000 Ci/mmole), as described by Sankara et al. (J. Biol. Chem., 254, 9349-9351, 1979).
The whole pancreas of a male Sprague-Dawley rat (200-350 g), which had been sacrificed by decapitation, was dissected free of fat tissue and homogenized in 20 volumes of ice-cold 50 mM Tris HCl (pH 7.7 at 25° C.) with a Brinkmann Polytron PT-10. The homogenates were centrifuged at 48,000 g for 10 minutes, then the resulting pellets were resuspended in Tris Buffer, centrifuged as above, and resuspended in 200 volumes of binding assay buffer (50 mM Tris HCl, pH 7.7 at 25° C., 5 mM dithiothreitol, 0.1 mM bacitracin, 1.2 mM phenylmethane sulfonyl fluoride and 0.5 mM o-phenanthroline).
The supernatant was aspirated and discarded, and the pellets were counted with a Beckman Gamma 5000.

[2] = molecular target: T3, Gastrin receptor (gastric glands) (Cavia porcellus, UniProt H0VZC5); assay: 125I-gastrin receptor binding in guinea pig gastric glands; design: species or system guinea pig (male Hartley); details: 25° C., 30 minutes
T3 construct: Gastric mucosa from male Hartley guinea pigs (300-500 g body weight); from tissue; host or cells: isolated gastric mucosal glands of male Hartley guinea pigs
T3 sequence (H0VZC5 1-426): T1 sequence (H0VZC5 1-426)
Source text: as §1
Gastrin Receptor Binding in Guinea Pig Gastric Glands
Guinea pig gastric mucosal glands were prepared by the procedure of Berglingh and Obrink, Acta Physiol. Scand. 96: 150 (1976), with a slight modification according to Praissman et al. C. J. Receptor Res. 3: (1983). Gastric mucosa from male Hartley guinea pigs (300-500 g body weight) were washed thoroughly and minced with fine scissors in standard buffer consisting of the following: 130 mM NaCl, 12 mM NaHCO3, 3 mM NaH2 PO4, 3 mM Na2 HPO4, 3 mM K2 HPO4, 2 mM MgSO4, 1 mM CaCl2, 5 mM glucose and 4 mM L-glutamine, 25 mM HEPES at pH 7.4. […]
The washed guinea pig gastric glands were resuspended in 25 ml of standard buffer containing 0.25 mg/ml of bacitracin. […] The radioactivity of the filters was measured using a Beckman gamma 5500 for ^125 I-gastrin or liquid scintillation counting for ^3 H-pentagastrin.

CCCN(CCC)C(=O)C(CCC(=O)O)NC(=O)c1ccccc1 (racemic) [Compound 1, reference compound]
gastrin antagonism (in words) (gastrin): very weak in vitro antagonists

CCCC(=O)Nc1nc2c(ncn2[C@@H]2O[C@@H]3COP(=O)(O)O[C@H]3[C@H]2OC(=O)CCC)c(=O)[nH]1 [dibutyryl cyclic GMP]
CCK antagonism (in words) (CCK receptor): most potent

CSCC[C@H](NC(=O)[C@H](Cc1ccc(OS(=O)(=O)O)cc1)NC(=O)OCc1ccccc1)C(=O)NCC(=O)N[C@@H](Cc1c[nH]c2ccccc12)C(=O)N[C@@H](CCSC)C(=O)N[C@@H](CC(=O)O)C(N)=O [Cbz-Tyr(SO3 H)-Met-Gly-Trp-Met-Asp-NH2] (Cbz-[sY]MGWMD-NH2)
CCK antagonism (in words) (CCK receptor): partial agonist

CCCCCN(CCCCC)C(=O)C(CCC(=O)O)NC(=O)c1ccc(Cl)c(Cl)c1 (racemic) [Compound 2, reference compound]
IC50 [1]: 2.2 µM

O=S(=O)(F)Cc1ccccc1 [phenylmethane sulfonyl fluoride]
effect on the 125I-CCK receptor binding assay (in words) (CCK receptor (pancreas)): no effect

O=C(O)CC[C@@H](NC(=O)c1cc2ccccc2[nH]1)C(=O)N(C1CCCCC1)C1CCCCC1 [Compound 10, (R)-5-(dicyclohexylamino)-4[(1H-indol-2-ylcarbonyl)amino]-5-oxo-pentanoic acid]
IC50 [1]: 3.4 µM
IC50 [2]: 4.1 µM

CSCC[C@H](N)C(=O)N[C@@H](CC(=O)O)C(=O)N[C@@H](Cc1ccccc1)C(N)=O [Met-Asp-Phe-NH2] (H-Met-Asp-Phe-NH2)
CCK antagonism (in words) (CCK receptor): can function as CCK antagonists

CSCC[C@H](NC(=O)OC(C)(C)C)C(=O)N[C@@H](CC(=O)O)C(=O)N[C@@H](Cc1ccccc1)C(N)=O [Boc-Met-Asp-Phe-NH2] (Boc-Met-Asp-Phe-NH2)
CCK antagonism (in words) (CCK receptor): can function as CCK antagonists

CCCCCN(CCCCC)C(=O)C(CCC(=O)OCc1ccccc1)NC(=O)Nc1ccc(Cl)cc1 (racemic) [Compound 8, (RS)-4-[(4-chlorophenylaminocarbonyl)amino]-5-(dipentylamino)-5-oxo-1-(phenylmethyloxy)pentanoic acid]
IC50 [1]: 5.3 µM
IC50 [2]: 22 µM

c1cnc2c(c1)ccc1cccnc12 [o-phenanthroline]
effect on the 125I-CCK receptor binding assay (in words) (CCK receptor (pancreas)): no effect
